Laboratory results: US9862676B2, “Hydroxamic acid derivative or salt thereof” (TOYAMA CHEMICAL CO., LTD., priority 2013, dated 2018)
Converted amounts (≈) assume the structure as drawn.

Assays:
[1] = biological target: T1, Pseudomonas aeruginosa LpxC enzyme (Pseudomonas aeruginosa, UniProt P47205); test: Test to evaluate Pseudomonas aeruginosa LpxC enzyme inhibitory activity; format: biochemical
T1 construct: made in house; host or cells: Escherichia coli
T1 sequence (P47205 1-303): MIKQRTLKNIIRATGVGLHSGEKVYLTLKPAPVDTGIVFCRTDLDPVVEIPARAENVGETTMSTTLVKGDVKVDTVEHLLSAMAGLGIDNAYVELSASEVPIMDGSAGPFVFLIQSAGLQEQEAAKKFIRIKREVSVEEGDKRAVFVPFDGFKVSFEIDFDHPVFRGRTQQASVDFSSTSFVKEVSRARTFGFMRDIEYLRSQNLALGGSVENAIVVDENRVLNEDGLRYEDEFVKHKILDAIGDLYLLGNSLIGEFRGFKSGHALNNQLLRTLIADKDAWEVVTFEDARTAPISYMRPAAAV
Description: The Pseudomonas aeruginosa LpxC enzyme activity was measured by reacting LpxC with its substrate UDP-3-O—(R-3-hydroxydecanoyl)-N-acetylglucosamine and measuring the amount of the reaction product by the quantification of an amino group present in the product. This measurement was carried out according to a method described in, for example, International Publication No. WO 11/132712 pamphlet or a method similar thereto.
Specifically, to the Pseudomonas aeruginosa LpxC enzyme (which was obtained by preparing chromosomal DNA from Pseudomonas aeruginosa, obtaining the Pseudomonas aeruginosa LpxC gene by PCR (polymerase chain reaction) using LpxC-specific primers, and incorporating this gene into a vector, followed by gene expression using Escherichia coli), 20 μmol/L UDP-3-O—(R-3-hydroxydecanoyl)-N-acetylglucosamine (Wako Pure Chemical Industries, Ltd.) was added, and the mixture was incubated at 25° C. for 1 hour. This reaction was carried out in a 40 mmol/L HEPES buffer solution (pH 8.0) containing 0.02% Brij 35 and 80 μmol/L dithiothreitol. The reaction was terminated by the addition of 20% acetic acid (final concentration: 0.95%) to the reaction solution. Then, fluorescamine (final concentration: 1.6 mg/mL) dissolved in anhydrous dioxane was added thereto. The amount of the reaction product was detected at an excitation wavelength/fluorescence wavelength=390 nm/495 nm. Each test compound was allowed to coexist at various concentrations in the reaction to obtain an inhibition curve.

[2] = tested on: Pseudomonas aeruginosa ATCC27853 strain; test: Antibacterial activity, MIC by broth microdilution (CLSI); format: cell-based
Description: (§1) The minimum inhibitory concentration (MIC) was measured according to the CLSI (Clinical and Laboratory Standards Institute) standard method using a broth microdilution method given below. The bacteria used were a Pseudomonas aeruginosa ATCC27853 strain, an Escherichia coli ATCC25922 strain and a Klebsiella pneumoniae ATCC13883 strain. Test bacterial cells of each strain cultured overnight in a Mueller-Hinton agar medium were scraped off and suspended at the McFarland 0.5 standard, and this suspension was diluted 10-fold to prepare an inoculum solution. The inoculum solution (0.005 mL) was inoculated to a cation-adjusted Mueller-Hinton medium containing each test compound and cultured at 35° C. for 16 to 20 hours. The minimum drug concentration at which bacterial growth was not visible to the naked eye was defined as MIC.

[3] = tested on: multidrug-resistant Pseudomonas aeruginosa clinical isolate (S-2838 strain); test: Defense against mouse systemic infection using multidrug-resistant Pseudomonas aeruginosa; format: in vivo; details: male ICR mice, S-2838 strain i.p.
Description: The mice used were male ICR SPF mice (4 weeks old: 5 individuals per group). To prepare a bacterial inoculum solution, a multidrug-resistant Pseudomonas aeruginosa clinical isolate (S-2838 strain) cultured overnight at 37° C. on a Mueller-Hinton agar plate was cultured for 5 hours in a cation-adjusted Mueller-Hinton medium and then diluted 10-fold with a 10% mucin/phosphate buffer solution to prepare the inoculum solution. Infection was induced by the intraperitoneal inoculation of 0.5 mL of the inoculum solution (approximately 10^6 CFU/mouse) to each mouse. Each test compound was dissolved in a 10% hydroxypropylated β-cyclodextrin/2.5% mannitol aqueous solution and intravenously administered to the tail a single dose of 50 mg/kg at 1 hour after the infection. Three days after the infection, the number of survivors was recorded.

[4] = Test on inhibition of Vero cell growth (XTT); format: cell-based; details: African green monkey, Vero cells, 3 days culture, read-out: CC50 (concentration inhibiting 50% of cell growth)
Description: Each test compound was dissolved in dimethyl sulfoxide, adjusted to each concentration using E'MEM, and then dispensed at 0.1 mL/well to 96-well microplates. The Vero cell suspension was prepared at 3×10^4 cells/mL using E'MEM supplemented with 20% FBS, inoculated thereto at 0.1 mL/well, and cultured at 37° C. for 3 days under 5% CO2. At the completion of the culture, PBS supplemented with 1 mg/mL 2,3-bis-(2-methoxy-4-nitro-5-sulfophenyl)-5-((phenylamino)carbonyl)-2H-tetrazolium inner salt monosodium salt (XTT) and 25 μM phenazine methosulfate (PMS) was prepared and added thereto at 50 μL/well. Approximately 2 hours later, the absorbance at 450 nm was measured using a microplate reader.

hERG current = biological target: T2, hERG current (Homo sapiens, UniProt Q12809); test: Evaluation of hERG inhibitory activity (whole cell clamp, HEK 293 cells); format: cell-based; details: up to 300 μmol/L; HEK 293 cells transfected with hERG gene, tail current 10 minutes after application
T2 construct: host or cells: HEK 293 cells
Description: HEK 293 cells (human embryo kidney 293 cells, Cytomyx LLC) transfected with hERG gene (human ether-a-go-go related gene) were used. The culture solution used was a MEM medium containing 10% fetal bovine serum and 1% nonessential amino acid and further supplemented with Geneticin at a concentration of 400 μg/mL. The cells were cultured in a carbonic acid gas incubator (37.0° C., 5% CO2).
The hERG current was measured by a whole cell clamp method. A glass cover with the cells for measurement attached thereto was placed in a dish and perfused at a rate of 2 mL/min with a perfusate (composition: 137 mmol/L NaCl, 4 mmol/L KCl, 10 mmol/L HEPES, 1.8 mmol/L CaCl2, 1 mmol/L MgCl2, 10 mmol/L glucose, pH 7.4). The inside temperature of the perfusion chamber was kept at 25° C. […]
Before the application and 10 minutes after the application, the peak value of tail current in the hERG current waveform was analyzed to calculate the ratio of the value 10 minutes after the application to the value before the application (relative value, %).

[5] = tested on: Chinese hamster lung fibroblasts (CHL/IU cells); test: In vitro micronucleus test for genotoxicity; format: cell-based; details: dose of 1 mmol/L or lower, short-time treatment (with and without metabolic activation) and 30-hour treatment methods
Description: In order to examine the inducibility of the chromosomal aberrations by each test compound in cultured cells, the in vitro micronucleus test was carried out. This test was carried out by a short-time treatment method (in the presence and absence of a metabolic activation) and a 30-hour treatment method using Chinese hamster lung fibroblasts (CHL/IU cells). The concentration of the test compound was set to 1.00 mmol/L as the maximum dose with reference to the “Guidance on Genotoxicity Testing and Data Interpretation for Pharmaceuticals Intended for Human Use”. Specimens were observed as to doses of 0.25, 0.50 and 1.00 mmol/L. The cells were inoculated at 15×10^4 cells to a 60-mm dish (IWAKI) and precultured at 37° C. for 24 hours under 5% CO2 using a MEM medium (Sigma-Aldrich Co., Ltd.) containing 10% newborn calf serum (Sigma-Aldrich Co., Ltd.) and 50 U/mL-50 μg/mL Penicillin-Streptomycin (Sigma-Aldrich Co., Ltd.). After the completion of the preculture, a vehicle (DMSO) or each test compound was added thereto. In the short-time treatment method, 6 hours after the culture, the cells were washed with PBS(−) (Sigma-Aldrich Co., Ltd.), and then, the medium was replaced with a fresh medium, followed by further culture for 24 hours. In the 30-hour treatment method, after the addition of the test compound, the cells were cultured for 30 hours. […]

[6] = tested on: Escherichia coli ATCC25922 strain; test: Antibacterial activity, MIC by broth microdilution (CLSI); format: cell-based
Description: as §1

[7] = tested on: Klebsiella pneumoniae ATCC13883 strain; test: as above; format: cell-based
Description: as §1

[8] = single intravenous dose 50 mg/kg 1 hour after infection

T2 sequence (Q12809 whole entry): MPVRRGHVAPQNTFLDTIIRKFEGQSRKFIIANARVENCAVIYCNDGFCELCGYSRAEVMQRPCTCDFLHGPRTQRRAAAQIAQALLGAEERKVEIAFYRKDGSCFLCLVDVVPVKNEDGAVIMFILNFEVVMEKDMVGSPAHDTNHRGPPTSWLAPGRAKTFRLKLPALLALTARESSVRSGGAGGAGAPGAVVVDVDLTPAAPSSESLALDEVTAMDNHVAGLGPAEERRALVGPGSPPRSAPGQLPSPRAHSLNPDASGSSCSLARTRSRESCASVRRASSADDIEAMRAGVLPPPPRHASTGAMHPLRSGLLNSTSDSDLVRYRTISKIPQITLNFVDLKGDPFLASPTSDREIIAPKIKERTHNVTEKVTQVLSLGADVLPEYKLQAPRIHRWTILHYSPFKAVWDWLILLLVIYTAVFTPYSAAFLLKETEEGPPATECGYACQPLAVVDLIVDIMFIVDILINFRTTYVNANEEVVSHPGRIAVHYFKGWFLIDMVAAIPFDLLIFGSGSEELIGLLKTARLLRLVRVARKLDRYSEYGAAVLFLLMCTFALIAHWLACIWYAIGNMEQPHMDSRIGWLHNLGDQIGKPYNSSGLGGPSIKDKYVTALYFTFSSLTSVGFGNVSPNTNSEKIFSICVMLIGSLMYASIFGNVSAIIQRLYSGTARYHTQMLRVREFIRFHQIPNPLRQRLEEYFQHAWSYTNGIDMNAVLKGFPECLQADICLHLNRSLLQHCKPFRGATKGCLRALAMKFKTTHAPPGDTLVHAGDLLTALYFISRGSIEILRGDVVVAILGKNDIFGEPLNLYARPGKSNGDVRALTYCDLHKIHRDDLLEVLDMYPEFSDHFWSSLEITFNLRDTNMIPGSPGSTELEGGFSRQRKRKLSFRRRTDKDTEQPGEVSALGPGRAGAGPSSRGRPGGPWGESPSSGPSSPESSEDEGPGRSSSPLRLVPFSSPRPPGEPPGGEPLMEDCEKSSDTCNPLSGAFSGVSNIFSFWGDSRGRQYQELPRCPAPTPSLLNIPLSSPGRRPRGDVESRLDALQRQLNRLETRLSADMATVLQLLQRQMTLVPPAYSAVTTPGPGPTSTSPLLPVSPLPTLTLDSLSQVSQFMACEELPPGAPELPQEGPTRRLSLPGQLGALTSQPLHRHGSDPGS

SMILES | IC50 [1] [µM] | MIC [2] [µg/mL] | mice surviving 3 days after the bacterial inoculation [3, 8] [%] | CC50 at 3 days [4] [µg/mL] | mice surviving 3 days after the bacterial inoculation ([3]; 25 mg/kg) [%] | hERG inhibitory activity (hERG current) | in vitro micronucleus test result [5] | MIC [6] [µg/mL] | MIC [7] [µg/mL]
CNC(=O)[C@@](C)(C(=O)NO)N(C)C(=O)c1ccc(C#Cc2ccc([C@@H](O)CO)cc2)cc1 [Example 19, (2S)-2-((4-((4-((1R)-1,2-dihydroxyethyl)phenyl)ethynyl)benzoyl)(methyl)amino)-N-hydroxy-N′,2-dimethyl-malonamide] | < 0.05 | 1 (≈ 2.28 µM) | 100 | ≥ 100 | – | – | – | – | –
CNC(=O)[C@@](C)(C(=O)NO)N(C)C(=O)c1ccc(C#Cc2ccc([C@H](O)CO)cc2)cc1 [Example 20, (2S)-2-((4-((4-((1S)-1,2-dihydroxyethyl)phenyl)ethynyl)benzoyl)(methyl)amino)-N-hydroxy-N′,2-dimethyl-malonamide] | < 0.05 | 1 (≈ 2.28 µM) | 100 | ≥ 100 | ≥ 60 | did not exhibit hERG inhibitory activity | negative | – | –
CNC(=O)[C@@](C)(C(=O)NO)N(C)C(=O)c1ccc(C#Cc2ccc([C@H](O)COC)cc2)cc1 [Example 23, (2S)—N-hydroxy-2-((4-((4-((1S)-1-hydroxy-2-methoxyethyl)phenyl)ethynyl)benzoyl)(methyl)amino)-N′,2-dimethyl-malonamide] | < 0.05 | 1 (≈ 2.21 µM) | 100 | ≥ 100 | – | did not exhibit hERG inhibitory activity | – | 0.25 (≈ 0.551 µM) | 1 (≈ 2.21 µM)
CNC(=O)[C@@](C)(C(=O)NO)N(C)C(=O)c1ccc(C#Cc2ccc([C@H](O)CCCO)cc2)cc1 [Example 39, (2S)-2-((4-((4-((1R)-1,4-dihydroxybutyl)phenyl)ethynyl)benzoyl)(methyl)amino)-N-hydroxy-N′,2-dimethyl-malonamide] | < 0.05 | 1 (≈ 2.14 µM) | 100 | – | – | – | – | 0.5 (≈ 1.07 µM) | 1 (≈ 2.14 µM)
